This is an account of results in patent US20090270363A1, “2-Aryl- and 2-Heteroarylthiazolyl Compounds, Methods for Their Preparation and Use Thereof” (Wyeth, priority 2008, published 2009).

Data set [1] deals with Xenografts of a Human Breast Carcinoma Cell Line (MDA-MB-361). The experiment in a line: Tumor xenograft study versus Herceptin (Table 2). The format is in vivo. Particulars: 40 mg/kg/dose PO, days 1 through 20. Here is the method:
(§1) Selected fused bicyclic 2-aryl- or 2-heteroarylthiazolyl compounds of formula I were tested for their activity in a securin parental cell line (HCT116 FB) and a securin knockout (KO) cell line. […] The in-vivo activity of selected fused bicyclic 2-aryl- or 2-heteroarylthiazolyl compounds of formula I was studied in cells growing as xenografts in athymic (nude) mice. The effect of Examples 164, 166 and 167 was studied in xenografts of a human breast carcinoma cell line (MDA-MB-361).
(§2) In-vivo Activity in Tumor Xenografts. […] The fused bicyclic 2-arylthiazolyl compounds were formulated using 0.5% Methocel™ (methylcellulose) and 0.4% Tween 80™ (polysorbate-80 and oleic acid) and administered daily orally (PO), by gavage or by syringe. Tumor mass [(length×width^2)/2] was determined every 7 days. Inhibition of tumor growth was calculated relative to conventional (vehicle treated) controls.

For data set [2], the system named is securin "knock out" cells D8 (Securin-/-). The experiment in a line: Growth inhibition (sulforhodamine B, 5 days) of securin knock out cells D8. The data set is classed as cell-based. To be noted: for IC50: 120 h, securin knock out D8 cells, 5 days, SRB; for Selectivity Ratio D8: IC50 HCT116 / IC50 securin KO D8. As to the method:
(§3) IC50 analysis was performed for selected fused bicyclic 2-aryl or 2-heteroarylthiazolyl compounds that were tested on HCT116 cells and Securin “knock out” cell lines.
(§4) Cell Culture—HCT116 and securin “knock out” cells. HCT116 and securin “knock out” cells (D8 and F3) were grown in RPMI+5% fetal bovine serum and gentamycin. They were maintained in a humidified 37° C. incubator with 5% CO2. Since the securin “knock out” cells have active chromosomal instability, cells were used at a low passage number of 2-13 passages. At or before passage 13 a new vial of cells was thawed and used for the screen. Cell seeding—HCT116 cells and securin “knock out” cells were trypsinized and suspended in RPMI+5% FBS at a density of 27,000 cells/mL. HCT116 and securin “knock out” cells were seeded separately in wells of a 96-well plate (Falcon Cat # 35-3872) at a cell density of 4000 cells per well. Cells were seeded in 150 μL of RPMI media containing 5% FBS and gentamycin. Cell seeding was performed under aseptic conditions. Cells were allowed to attach and grow overnight in a humidified 37° C. incubator.
(§5) Compound Dilution and Dispensation. A series of stock solutions, 10 mg/mL of fused bicyclic 2-aryl- or 2-heteroarylthiazolyl compounds to be tested, were brought to room temperature. The compounds were diluted 1:50 in RPMI+5% FBS (Highest concentration 200 μg/mL). The compounds were then serially diluted 1:3 across a deep-well titration plate resulting in final concentrations in the plate of 200, 66.7, 22.2, 7.4, 2.4, 0.8, 0.27, 0.091, 0.03, 0.01, and 0.0034 μg/mL with one well left without a compound. 50 μL of this dilution series was added to the 150 μL of cells to result in a final concentration of compound in with the cells of 50, 16.6, 5.5, 1.8, 0.6, 0.2, 0.068, 0.023, 0.0076, 0.0025, and 0.00084 μg/mL. The dilution and addition of compounds to the plates is performed using a Multimek 96 Robot (Beckman Coulter).
(§6) Incubation and analysis. After dosing, the cells in the 96 well plates were returned to the humidified 37° C. incubator. The compounds remained on the cells for 5 days. After 5 days, the cells were fixed to the plates with the addition of 50 μL of 50% (vol/vol) Trichloro Acetic Acid ([…]). The cells were fixed at 4° C. for 1 hour. The plates were washed 5 times in distilled water and allowed to dry. The cells were stained with 0.4% sulforhodamine B (Sigma) in 1% acetic acid. The cells were stained for 15 minutes at room temperature. The plates were then washed 3 times in 1% acetic acid. The plates were dried and the dye was solubilized in 10 mM Tris at pH 8.0. The plates were read on the Absorbence 560 setting on a Victor^2 V Model 1420 Multilabel HTS counter (Perkin Elmer).
(§7) Analysis of Results—IC50 data. Absorbence data was read off of the Victor and was converted to a percentage of the control (untreated) values. IC50 values were graphed and the point at which a 50% inhibition of the control level was determined. […] If the model was not able to determine an IC50, the IC50 was assigned to the lowest concentration that gives a 50% or greater decrease in absorbence compared to control levels. If the calculated IC50 value for a cell line exceeds the top concentration for the assay (typically 50 μg/mL), the assay was scored as >50.
(§8) Selectivity Ratio. The Selectivity Ratio is the ratio of IC50s between the parent cell line and the knock out cell line and is always a positive number and is typically an integer.

For data set [3], the system named is HCT116 cells (Securin+/+, securin parental, HCT116 FB). The experiment in a line: Growth inhibition (sulforhodamine B, 5 days) of securin parental cells. Particulars: Homo sapiens, HCT-116, 120 h, SRB. The format is cell-based. Here is the method: as §3, §4, §5, §6, §7, §8
The subject of data set [4] is securin "knock out" cells F3 (Securin-/-). The experiment in a line: Growth inhibition (sulforhodamine B, 5 days) of securin knock out cells F3. The format is cell-based. To be noted: for IC50: 120 h, securin knock out F3 cells, 5 days, SRB; for Selectivity Ratio F3: IC50 HCT116 / IC50 securin KO F3. Here is the method:
as §3, §4, §5, §6, §7, §8

Data set [5] has as its system Xenografts of a Human Breast Carcinoma Cell Line (MDA-MB-361). The experiment in a line: Tumor xenograft study versus Vincristine (Table 3). The format is in vivo. Here is the method:
as §1, §2
The effectiveness of Examples 164, 166 and 167 versus Vincristine at controlling tumor growth was studied and the results are summarized in Table 3 and FIG. 2.

The mark [6] stands for this setting: 100 mg/kg/dose PO, BID, days 2 through 21.
Where [7] appears, read: 100 mg/kg/dose PO, BID, days 2 through 21, BID vehicle group listed.
Setting [8] is: 150 mg/kg/dose PO, days 2 through 21.
[9] abbreviates: 0.8 mg/kg/dose IP, days 2, 5 and 10.

On to `CCOc1cc2ncc(C#N)c(Nc3ccc(F)c(Cl)c3)c2cc1NC(=O)/C=C/CN(C)C` [EKB-569], for which, in data set [1], the “% T/C Day 7” value amounted to 66%, the “% T/C Day 14” value is 80%, the “% T/C Day 21” value is 78% and the “Relative Tumor Growth Day 7” value was 1.28. Besides, in data set [1], the “Relative Tumor Growth Day 14” value stood at 2.57, the “Relative Tumor Growth Day 21” value came to 8.24 and the “S/T = # of Survivors/# of Treated on Day +21” value is on record as 10/10.

Consider `CN(C)c1ccc(-c2nc3c(s2)C(O)CC3)cc1` (stereo not shown) [Example 5, 2-[4-(dimethylamino)phenyl]-5,6-dihydro-4H-cyclopenta[d][1,3]thiazol-6-ol], for which the results for the IC50 in data set [2], in data set [3] and in data set [4] were 1.3 µM, 54.3 µM and 1.8 µM, respectively. Moreover, the “Selectivity Ratio D8” value in data set [2] turned out to be 43. Further, the “Selectivity Ratio F3” value in data set [4] was 30.

On to `CN(C)c1ccc(-c2nc3c(s2)[C@H](O)CC3)cc1` [Example 6, (6R)-2-[4-(dimethylamino)phenyl]-5,6-dihydro-4H-cyclopenta[d][1,3]thiazol-6-ol], for which, in data set [2], the IC50 worked out at 0.46 µM and the “Selectivity Ratio D8” value was 95. Moreover, in data set [3], the IC50 is 43.4 µM. In addition, in data set [4], the IC50 worked out at 0.84 µM and the “Selectivity Ratio F3” value was 52.

As to `CN(C)c1cc(F)c(-c2nc3c(s2)C(O)CCC3)c(F)c1` (stereo not shown) [Example 25, 2-[4-(dimethylamino)-2,6-difluorophenyl]-4,5,6,7-tetrahydro-1,3-benzothiazol-7-ol], in data set [2], the IC50 amounted to 2.6 µM and the “Selectivity Ratio D8” value was found to be 62. In data set [3], the IC50 was no less than 161 µM. Also, in data set [4], 6.7 µM corresponded to half-maximal inhibition (IC50) and the “Selectivity Ratio F3” value worked out at 24.

In the case of `Cc1cc(N(C)C)ccc1-c1nc2c(s1)C(O)CCC2` (stereo not shown) [Example 45, 2-[4-(dimethylamino)-2-methylphenyl]-4,5,6,7-tetrahydro-1,3-benzothiazol-7-ol], in data set [2], the “selectivity ratios (IC50 HCT116 FB/IC50 securin KO)” value is “high selectivity ratios”, the IC50 was 0.54 µM and the “Selectivity Ratio D8” value is 245. In addition, the IC50 in data set [3] was 133 µM. In data set [4], the IC50 was 1.1 µM and the “Selectivity Ratio F3” value is on record as 121.

In the case of `CCc1cc(N(C)C)ccc1-c1nc2c(s1)C(O)CCC2` (stereo not shown) [Example 47, 2-[4-(dimethylamino)-2-ethylphenyl]-4,5,6,7-tetrahydro-1,3-benzothiazol-7-ol], in data set [2], the IC50 is 0.43 µM and the “Selectivity Ratio D8” value stood at 179. Besides, the IC50 in data set [3] worked out at 76.4 µM. In data set [4], the midpoint of inhibition, the IC50, lay at 3 µM and the “Selectivity Ratio F3” value is reported as 26.

As for `COC(=O)c1cc(N(C)C)ccc1-c1nc2c(s1)C(O)CCC2` (stereo not shown) [Example 55, methyl 5-(dimethylamino)-2-(7-hydroxy-4,5,6,7-tetrahydro-1,3-benzothiazol-2-yl)benzoate], in data set [2], the IC50 was found to be 0.65 µM and the “Selectivity Ratio D8” value amounted to 160. Also, the IC50 in data set [3] amounted to 105 µM. In data set [4], the IC50 turned out to be 1.2 µM and the “Selectivity Ratio F3” value worked out at 90.

Take `CN(C)c1ccc(-c2nc3c(s2)C(O)CCC3)c(CO)c1` (stereo not shown) [Example 60, 2-[4-(dimethylamino)-2-(hydroxymethyl)phenyl]-4,5,6,7-tetrahydro-1,3-benzothiazol-7-ol]: the results for the IC50 in data set [2], in data set [3] and in data set [4] were 0.091 µM, 97.5 µM and 0.12 µM, respectively. The “Selectivity Ratio D8” value in data set [2] is reported as 1076. Further, the “Selectivity Ratio F3” value in data set [4] was determined as 821.

As to `CN(C)c1ccc(-c2nc3c(s2)C(O)CCC3)c(C=O)c1` (stereo not shown) [Example 67], the values for the IC50 in data set [2], in data set [3] and in data set [4] were 0.059 µM, 31 µM and 0.15 µM, respectively. Also, in data set [2], the “Selectivity Ratio D8” value is 525. Also, the “Selectivity Ratio F3” value in data set [4] came to 206.

On to `CN(C)c1ccc(-c2nc3c(s2)C(O)CCC3)c(C(C)(C)O)c1` (stereo not shown) [Example 72, 2-[4-(dimethylamino)-2-(1-hydroxy-1-methylethyl)phenyl]-4,5,6,7-tetrahydro-1,3-benzothiazol-7-ol], for which, in data set [2], half-maximal inhibition (IC50) required 1 µM and the “Selectivity Ratio D8” value worked out at 52. Moreover, the IC50 in data set [3] was 54 µM. In data set [4], the midpoint of inhibition, the IC50, lay at 2 µM and the “Selectivity Ratio F3” value came to 27.

With `CCOc1cc2ncc(C#N)c(Nc3ccc(OCc4ccccn4)c(Cl)c3)c2cc1NC(=O)/C=C/CN(C)C` [HKI-272, reference compound], in data set [1], the “% T/C Day 7” value was 62%, the “% T/C Day 14” value turned out to be 89%, the “% T/C Day 21” value is recorded as 76% and the “Relative Tumor Growth Day 7” value turned out to be 1.19. In addition, in data set [1], the “Relative Tumor Growth Day 14” value came out at 2.86, the “Relative Tumor Growth Day 21” value stood at 8.03 and the “S/T = # of Survivors/# of Treated on Day +21” value is reported as 10/10.

For `COc1cc(Nc2c(C#N)cnc3cc(OCCCN4CCN(C)CC4)c(OC)cc23)c(Cl)cc1Cl` [SKI-606 20], in data set [5] (setting [6]), the “Relative Tumor Growth Day 8” value is 1.97, the “Relative Tumor Growth Day 15” value is listed as 2.44, the “Relative Tumor Growth Day 22” value was found to be 3.91 and the “Relative Tumor Growth Day 29” value amounted to 5.73. For the same compound, in data set [5] (setting [6]), the “Relative Tumor Growth Day 36” value was determined as 10.26 and the “S/T = # of Survivors/# of Treated on Day +36” value was 8/10. For the same compound, in data set [5] (setting [7]), the “% T/C Day 8” value amounted to 52%, the “% T/C Day 15” value is on record as 27% and the “% T/C Day 22” value is 18%. In data set [5] (setting [8]), the “% T/C Day 8” value is on record as 40%, the “% T/C Day 15” value came to 22%, the “% T/C Day 22” value came out at 16% and the “Relative Tumor Growth Day 8” value was 2.09. Further, in data set [5] (setting [8]), the “Relative Tumor Growth Day 15” value is reported as 2.77, the “Relative Tumor Growth Day 22” value was determined as 3.62, the “Relative Tumor Growth Day 29” value came out at 7.22 and the “Relative Tumor Growth Day 36” value came to 10.19. Moreover, the “S/T = # of Survivors/# of Treated on Day +36” value in data set [5] (setting [8]) is on record as 10/10.

On to `CC[C@]1(O)C[C@H]2CN(CCc3c([nH]c4ccccc34)[C@@](C(=O)OC)(c3cc4c(cc3OC)N(C=O)[C@H]3[C@@](O)(C(=O)OC)[C@H](OC(C)=O)[C@]5(CC)C=CCN6CC[C@]43[C@@H]65)C2)C1` [Vincristine, reference compound], for which, in data set [5] (setting [9]), the “% T/C Day 8” value is given as 33%, the “% T/C Day 15” value amounted to 23%, the “% T/C Day 22” value stood at 30% and the “Relative Tumor Growth Day 8” value is reported as 1.75. In data set [5] (setting [9]), the “Relative Tumor Growth Day 15” value was 2.84, the “Relative Tumor Growth Day 22” value came to 6.71 and the “Relative Tumor Growth Day 29” value is reported as 11.47.

Broadly, the IC50 is the concentration needed to halve the response being measured.
